The text below walks through data of patent publication US4129565A, “Isocarbostyril derivatives” (priority 1975, dated 1978).

The target in data set [1] is T1, isolated guinea-pig atria (β1) (Cavia porcellus, UniProt H0W3H1).
T1 construct: isolated guinea-pig atria; from tissue; host or cells: isolated guinea-pig atria
As to the kind of experiment: β-adrenergic blocking effect: antagonism of isoproterenol stimulation in isolated guinea-pig atria.

Data set [2] addresses T2, isolated guinea-pig tracheas (β2) (Cavia porcellus, UniProt Q8K4Z4).
T2 construct: isolated guinea-pig tracheas; from tissue; host or cells: isolated guinea-pig tracheas
As to the kind of experiment: β-adrenergic blocking effect: antagonism of isoproterenol stimulation in isolated guinea-pig tracheas.

Data set [3] relates to reserpine-treated anaesthetized rats. As to the kind of experiment: Intrinsic heart stimulating effect in reserpine-treated anaesthetized rats. It counts as in vivo, rat. As to the method: Intrinsic heart stimulating effects of the compounds of the invention were also determined using reserpine-treated anaesthetized rats.
Another data set can be described thus: in vivo. As to conditions: mouse, iv. As to the method: With respect to acute toxicity of the isocarbostyril derivatives of the general formula (I), experiments were carried out to obtain the LD50 values of the compounds.

Structures can show the parent of a compound that is named as a salt. Where only a bound is given, the exact number is not on record here.

T1 sequence (H0W3H1 1-470): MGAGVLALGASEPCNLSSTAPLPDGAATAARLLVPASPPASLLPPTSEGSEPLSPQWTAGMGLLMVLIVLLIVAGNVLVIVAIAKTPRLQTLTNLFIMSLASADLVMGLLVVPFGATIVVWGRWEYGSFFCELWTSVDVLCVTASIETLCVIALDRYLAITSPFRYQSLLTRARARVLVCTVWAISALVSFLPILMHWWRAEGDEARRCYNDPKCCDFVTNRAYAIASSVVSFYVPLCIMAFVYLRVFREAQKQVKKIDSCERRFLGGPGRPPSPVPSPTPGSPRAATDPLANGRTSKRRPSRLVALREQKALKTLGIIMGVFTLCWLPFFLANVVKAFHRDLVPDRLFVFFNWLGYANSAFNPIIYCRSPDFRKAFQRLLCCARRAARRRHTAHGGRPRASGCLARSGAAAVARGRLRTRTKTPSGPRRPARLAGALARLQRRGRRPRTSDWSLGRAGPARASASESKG
T2 sequence (Q8K4Z4 whole entry): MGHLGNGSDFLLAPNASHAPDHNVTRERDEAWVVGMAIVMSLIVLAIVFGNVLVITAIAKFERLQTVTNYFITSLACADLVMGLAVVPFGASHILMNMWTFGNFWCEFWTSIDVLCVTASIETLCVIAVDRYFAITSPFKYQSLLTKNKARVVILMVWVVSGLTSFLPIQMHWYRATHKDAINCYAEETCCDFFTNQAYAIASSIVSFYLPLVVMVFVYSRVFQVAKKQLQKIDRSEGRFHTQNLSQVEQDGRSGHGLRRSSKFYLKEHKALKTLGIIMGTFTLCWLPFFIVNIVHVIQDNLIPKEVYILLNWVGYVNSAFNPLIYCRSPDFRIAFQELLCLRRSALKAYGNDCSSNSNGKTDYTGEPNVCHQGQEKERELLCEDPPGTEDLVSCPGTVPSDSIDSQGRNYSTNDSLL

As to `CC(C)NCC(O)COc1cn(C)c(=O)c2ccccc12` (stereo not drawn) [Example 1, 4-(3-isopropylamino-2-hydroxy)propoxy-2-methylisocarbostyrilhydrochloride], the “β-adrenergic blocking activity (Relative potency) atria (β1)” value in data set [1] is 3.2. For the same compound, in data set [2], the “β-adrenergic blocking activity (Relative potency) trachea (β2)” value was 0.44. For the same compound, the Intrinsic heart stimulation in data set [3] came out at 0. This compound yielded a 50% lethal dose (LD50) in “in vivo” of 105 mg/kg.
Taken in the same sequence, the figures for `Cn1cc(OCC(O)CNC(C)(C)C)c2ccccc2c1=O` (stereo not drawn) [Example 2, 4-(3-tert.-butylamino-2-hydroxy)propoxy-2-methylisocarbostyril hydrochloride] were 2.5, 0.52, 0 and 119 mg/kg.
`CCC(C)NCC(O)COc1cn(C)c(=O)c2ccccc12` (stereo not drawn) [Example 3, 4-(3-sec.-butylamino-2-hydroxy)propoxy-2-methyl isocarbostyril hydrochloride]: the “β-adrenergic blocking activity (Relative potency) atria (β1)” value in data set [1] amounted to 4.5. In data set [2], the “β-adrenergic blocking activity (Relative potency) trachea (β2)” value stood at 0.05. This compound showed an Intrinsic heart stimulation in data set [3] of 0. In the data set “in vivo”, this compound displayed an LD50 of 120 mg/kg.
In the case of `Cn1cc(OCC(O)CNCc2ccccc2)c2ccccc2c1=O` (stereo not drawn) [Example 7, 4-(3-benzylamino-2-hydroxy)propoxy-2-methylisocarbostyril hydrochloride], the LD50 in the data set “in vivo” stood at 120 mg/kg.
The compound `Cn1cc(OCC(O)CNC2CCCCC2)c2ccccc2c1=O` (stereo not drawn) [Example 8, 4-(3-cyclohexylamino-2-hydroxy)propoxy-2-methylisocarbostyril hydrochlorid] had an LD50 in “in vivo” of 80 mg/kg.
`Cn1cc(OCC(O)CN2CCCCC2)c2ccccc2c1=O` (stereo not drawn) [Example 9, 4-(3-piperidino-2-hydroxy)propoxy-2-methylisocarbostyril hydrochloride]: the LD50 in “in vivo” was found to be 200 mg/kg.
The same measure, in the same setting: the result for `CCCCN(C)CC(O)COc1cn(C)c(=O)c2ccccc12` (stereo not drawn) [Example 11, 4-(3-N-methyl-butylamino-2-hydroxy) propoxy-2-methyl isocarbostyril] reads 143 mg/kg; that for `CN1CCN(CC(O)COc2cn(C)c(=O)c3ccccc23)CC1` (stereo not drawn) [Example 12, 4-(3-N-methylpiperazino-2-hydroxy) propoxy-2-methyl isocarbostyril], 270 mg/kg.
On the same count and under the same terms, the result for `CC[N+](C)(CC)CC(O)COc1cn(C)c(=O)c2ccccc12` (stereo not drawn) [Example 13, 4-(3-diethylamino-2-hydroxy)propoxy-2-methyl isocarbostyril methoiodide] reads 15.2 mg/kg.
Still for that read-out and setting: the result for `CC(C)[N+](C)(C)CC(O)COc1cn(C)c(=O)c2ccccc12` (stereo not drawn) [Example 14] reads under 20 mg/kg; that for `CC[N+](C)(C)CC(O)COc1cn(C)c(=O)c2ccccc12` (stereo not drawn) [Example 15, 4-(3-dimethylamino-2-hydroxy)propoxy-2-methyl isocarbostyril ethoiodide], 16.7 mg/kg.
`CC(C)NCC(O)COc1cccc2ccccc12` (stereo not drawn) [Propranolol, propranolol, reference compound] returned an Intrinsic heart stimulation in data set [3] of 0.
For the compound `CCCNCC(O)COc1cn(C)c(=O)c2ccccc12` (stereo not drawn) [R3=H, R4=n-C3 H7], the median lethal dose (LD50) in the data set “in vivo” was determined as 115 mg/kg.
The same measure, in the same setting: the result for `CCCCNCC(O)COc1cn(C)c(=O)c2ccccc12` (stereo not drawn) [R3=H, R4=n-C4 H9] reads 105 mg/kg; that for `CCCCCCNCC(O)COc1cn(C)c(=O)c2ccccc12` (stereo not drawn) [R3=H, R4=n-C6 H13], 69 mg/kg.

By LD50 is commonly meant the dose at which mortality reaches 50%. A high value points to a less toxic substance.
